Experimental data published in article PMC11928319 (Nature Plants, 2025).
Where no end group is shown, it is not given here.

Experiments:
[1] = Peptide quantification by mass spectrometry after incubation in cell-free supernatant of Rhodanobacter R179; assay type: in vitro ADME; conditions: axenic XVM2 medium, 1h, 1 µM AtPep1, NHS-acetate modified, LC-MS [M+2H]
Description: (§1) Elicitors were also supplemented into the medium prior to solidification at a final concentration of 1 µM. The flg22 ([…]) and AtPep1 ([…]) peptides were synthesized by EZbiolab. elf18^R179 (Ac-[…]) and elf18 (Ac-[…]) were synthesized by GenScript and EZbiolab, respectively. For inoculation with the bacterial supernatant, bacteria were cultivated overnight in XVM2 minimal medium (20 mM NaCl, 10 mM (NH4)2SO4, 5 mM MgSO4, 1 mM CaCl2, 0.16 mM KH2PO4, 0.32 mM K2HPO4, 0.01 mM FeSO4, 10 mM fructose, 10 mM sucrose, 0.03% Casamino acids, pH 6.7)[76] to a final concentration of OD600 = 0.4. Bacteria were pelleted by centrifugation (11,600 g, 2 min), and the supernatant was sterile-filtered using filter units with MF-Millipore membrane (0.22 µm; Millex). The supernatant was incubated in boiling water for 30 min for heat treatment. Then, 25 ml of 1× MS with 20 g l^−1 Bacto Agar was mixed with 25 ml of supernatant prior to medium solidification and poured into square petri dishes. Sterilized seeds were placed on solidified agar in square petri dishes and vertically incubated for 14 days.
(§2) Bacterial supernatants were prepared as described in ‘Agar-based cultivation of axenic plants and co-cultivation with bacteria, bacterial supernatants and elicitors’. Here, additionally, the peptides dRGF1 (DYSNPGHHP-Hyp-RHN) and PSY1 (D-Y(SO3H)-[…]-Hyp-Hyp-S) synthesized by Scilight Peptide were incubated for 1 h with 1 µM of peptides in a plant cultivation light chamber (day-light condition; see ‘Plant cultivation conditions’), and the samples were frozen at −20 °C until further processing. For the investigation of AtPep1 degradation, the AtPep1 peptide was first modified by acetylation (six to seven times). To this end, 100-µl aliquots of peptides were treated with 10 µl of NHS acetate solution (1 M NHS acetate in 50% ACN/PBS) and incubated for 30 min with shaking. The reaction was quenched by the addition of 100 µl of 100 mM Tris-HCl (pH 8.5) and incubated for 10 min. For comparison of the non-acetylated peptides with the above-described modified AtPep1 peptides, aliquots of the non-acetylated peptides were processed as described above, but without the modifying NHS reaction. To this end, 100-µl aliquots of the sample were mixed with 100 µl of PBS buffer (137 mM NaCl, 2.7 mM KCl, 10 mM Na2HPO4, 1.8 mM KH2PO4; pH 7.4). The samples were then further diluted with 100 µl of 100 mM Tris-HCl (pH 8.5) and incubated for 10 min. All samples were acidified with 5 µl of TFA and desalted using StageTips with C18 Empore disk membranes (3M)[109]. The samples were dried in a vacuum evaporator and dissolved in 10 µl of 2% ACN (0.1% TFA for analysis).
(§3) The samples were analysed using an EASY-nLC 1200 (Thermo Fisher) coupled to a QExactive Plus mass spectrometer (Thermo Fisher). Peptides were separated on 16-cm frit-less silica emitters (New Objective, 75 µm inner diameter), packed in-house with reversed-phase ReproSil-Pur C18 AQ 1.9 µm resin (Dr. Maisch). Peptides were loaded on the column and eluted for 50 min using a segmented linear gradient of 5% to 95% solvent B (0 min, 5% B; 0–5 min, 15% B; 5–35 min, 50% B; 35–45 min, 95% B; 45–50 min, 95% B) (solvent A: 0% ACN, 0.1% FA; solvent B: 80% ACN, 0.1% FA) at a flow rate of 300 nl min^−1. Mass spectra were acquired in data-dependent acquisition mode with a TOP10 method. Mass spectrometry spectra were acquired in the Orbitrap analyser with a mass range of 300–1,500 m/z at a resolution of 70,000 full width at half maximum (FWHM) and a target value of 3 × 10^6 ions. Precursors were selected with an isolation window of 1.3 m/z. Higher-energy collision dissociation (HCD) fragmentation was performed at a normalized collision energy of 25. Tandem mass spectrometry (MS/MS) spectra were acquired with a target value of 5 × 10^5 ions at a resolution of 17,500 FWHM, a maximum injection time of 85 ms and a fixed first mass of 100 m/z. […]

[2] = test system: filter-sterile supernatant of Rhodanobacter R179 (secreted peptidase(s)); assay: as above; assay type: in vitro ADME; conditions: for peptide detected by mass spectrometry after incubation in supernatant of the R179 dssAB mutant: filter-sterile supernatant of dssAB mutant cultivated in XVM2 (OD600 = 0.4); for peptide detected by mass spectrometry after incubation in supernatant of the R179 dssAB mutant / peptide detected by mass spectrometry after incubation in supernatant of wild-type R179: LC-MS MS1 peak area; for peptide detected by mass spectrometry after incubation in supernatant of wild-type R179: filter-sterile supernatant of wild-type R179 cultivated in XVM2 minimal medium (OD600 = 0.4), light chamber, n = 3 culture supernatants; for Log10(total_area_MS1) / percent_rel_axenic: incubation 1h; for Log10(total_area_MS1): MS1 precursor area; for percent_rel_axenic: peptide relative to axenic; for Total_area MS1 of identified AtPep1 cleavage product (acetylated […]): 1 µM AtPep1, LC-MS [M+2H]; for Total_area MS1 (intact flg22): 1 µM, LC-MS [M+2H]
Description: as §1, §2, §3

[3] = test system: Arabidopsis wild type and efr mutant plants; assay: elf18-induced shoot growth inhibition, shoot weight; assay type: in vivo, Arabidopsis thaliana; conditions: Arabidopsis Col-0, 1 µM, 2 weeks
[4] = R179 dssAB mutant supernatant, XVM2 medium, replicate 1
[5] = R179 dssAB mutant supernatant, XVM2 medium, replicate 2
[6] = R179 dssAB mutant supernatant, XVM2 medium, replicate 3
[7] = R179 wt supernatant, XVM2 medium, replicate 1
[8] = R179 wt supernatant, XVM2 medium, replicate 2
[9] = R179 wt supernatant, XVM2 medium, replicate 3
[10] = axenic XVM2 medium control, replicate 1
[11] = axenic XVM2 medium control, replicate 2
[12] = axenic XVM2 medium control, replicate 3
[13] = supernatant of wt R179 in XVM2 (OD600 = 0.4), 1h, replicate 1
[14] = supernatant of wt R179 in XVM2 (OD600 = 0.4), 1h, replicate 2
[15] = supernatant of wt R179 in XVM2 (OD600 = 0.4), 1h, replicate 3

ATKVKAKQRGKEKVSSGRPGQHN [AtPep1]
Total_area MS1 of identified AtPep1 cleavage product (acetylated […]) ([1]; replicate 2): 0.00E+00
Total_area MS1 of identified AtPep1 cleavage product (acetylated […]) ([1]; replicate 3): 0.00E+00
traces of AtPep1 detected after incubation in R179 supernatants ([2]; 1 µM peptide, 1 h, R179 supernatant in XVM2, AtPep1 acetylated before LC-MS): < 0.01%
peptide detected by mass spectrometry after incubation in supernatant of the R179 dssAB mutant ([2]; 1 µM peptide, 1 h, n = 3): depleted
peptide detected by mass spectrometry after incubation in supernatant of wild-type R179 ([2]; 1 µM peptide, 1 h): depleted
Log10(total_area_MS1) [2, 4]: 6.423
Log10(total_area_MS1) [2, 5]: 6.556
Log10(total_area_MS1) [2, 6]: 5.255
percent_rel_axenic [2, 4]: 0.0095%
percent_rel_axenic [2, 5]: 0.0129%
percent_rel_axenic [2, 6]: 0.0006%
Log10(total_area_MS1) [2, 7]: 7.379
Log10(total_area_MS1) [2, 8]: 5.86
Log10(total_area_MS1) [2, 9]: 6.66
percent_rel_axenic [2, 7]: 0.086%
percent_rel_axenic [2, 8]: 0.0026%
percent_rel_axenic [2, 9]: 0.0164%
Log10(total_area_MS1) [2, 10]: 10.4254
Log10(total_area_MS1) [2, 11]: 10.4615
Log10(total_area_MS1) [2, 12]: 10.4458
percent_rel_axenic [2, 10]: 95.7106%
percent_rel_axenic [2, 11]: 103.993%
percent_rel_axenic [2, 12]: 100.296%
Total_area MS1 of identified AtPep1 cleavage product (acetylated […]) ([2]; supernatant of R179 dssAB mutant in XVM2 (OD600 = 0.4), 1h, replicate 1): 2.38E+09
Total_area MS1 of identified AtPep1 cleavage product (acetylated […]) ([2]; supernatant of R179 dssAB mutant in XVM2 (OD600 = 0.4), 1h, replicate 2): 1.79E+09
Total_area MS1 of identified AtPep1 cleavage product (acetylated […]) ([2]; supernatant of R179 dssAB mutant in XVM2 (OD600 = 0.4), 1h, replicate 3): 2.15E+09
Total_area MS1 of identified AtPep1 cleavage product (acetylated […]) [2, 13]: 1.79E+09
Total_area MS1 of identified AtPep1 cleavage product (acetylated […]) [2, 14]: 1.66E+09
Total_area MS1 of identified AtPep1 cleavage product (acetylated […]) [2, 15]: 1.89E+09

Ac-SKEKFERTKPHVNVGTIG [elf18]
shoot growth (shoot weight) upon peptide treatment [3]: Shoot growth inhibition
peptide detected by mass spectrometry after incubation in supernatant of the R179 dssAB mutant ([2]; 1 µM peptide, 1 h, n = 3): depleted
peptide detected by mass spectrometry after incubation in supernatant of wild-type R179 ([2]; 1 µM peptide, 1 h): depleted
Log10(total_area_MS1) [2, 4]: 0
Log10(total_area_MS1) [2, 5]: 0
Log10(total_area_MS1) [2, 6]: 0
percent_rel_axenic [2, 4]: 0%
percent_rel_axenic [2, 5]: 0%
percent_rel_axenic [2, 6]: 0%
Log10(total_area_MS1) [2, 8]: 0
Log10(total_area_MS1) [2, 9]: 0
percent_rel_axenic [2, 7]: 0%
percent_rel_axenic [2, 8]: 0%
percent_rel_axenic [2, 9]: 0%
Log10(total_area_MS1) [2, 10]: 10.4989
Log10(total_area_MS1) [2, 11]: 10.552
Log10(total_area_MS1) [2, 12]: 10.527
percent_rel_axenic [2, 10]: 93.8398%
percent_rel_axenic [2, 11]: 106.053%
percent_rel_axenic [2, 12]: 100.108%

QRLSTGSRINSAKDDAAGLQIA [flg22]
peptide detected by mass spectrometry after incubation in supernatant of the R179 dssAB mutant ([2]; 1 µM peptide, 1 h, n = 3): efficient and rapid (1 h) proteolytic degradation
peptide detected by mass spectrometry after incubation in supernatant of wild-type R179 ([2]; 1 µM peptide, 1 h): efficient and rapid (1 h) proteolytic degradation
peptide detected by mass spectrometry after incubation in heat-treated supernatant of wild-type R179 ([2]; 1 µM peptide, 1 h, supernatant boiled 30 min, XVM2, LC-MS MS1 peak area, n = 3): detected
Log10(total_area_MS1) [2, 4]: 0
Log10(total_area_MS1) [2, 5]: 0
Log10(total_area_MS1) [2, 6]: 0
percent_rel_axenic [2, 4]: 0%
percent_rel_axenic [2, 5]: 0%
percent_rel_axenic [2, 6]: 0%
Log10(total_area_MS1) [2, 8]: 0
Log10(total_area_MS1) [2, 9]: 0
percent_rel_axenic [2, 7]: 0%
percent_rel_axenic [2, 8]: 0%
percent_rel_axenic [2, 9]: 0%
Log10(total_area_MS1) [2, 11]: 8.543
Log10(total_area_MS1) [2, 12]: 8.745
percent_rel_axenic [2, 11]: 75.7327%
percent_rel_axenic [2, 12]: 120.41%
Total_area MS1 (intact flg22) ([2]; axenic XVM2 medium, 1h, replicate 2): 3.04E+08
Total_area MS1 (intact flg22) ([2]; axenic XVM2 medium, 1h, replicate 3): 4.20E+08
Total_area MS1 (intact flg22) ([2]; heat-treated (HK-wt) supernatant of wt R179 in XVM2, 1h, replicate 1): 1.96E+09
Total_area MS1 (intact flg22) ([2]; heat-treated (HK-wt) supernatant of wt R179 in XVM2, 1h, replicate 2): 3.13E+09
Total_area MS1 (intact flg22) ([2]; heat-treated (HK-wt) supernatant of wt R179 in XVM2, 1h, replicate 3): 9.82E+08
Total_area MS1 (intact flg22) [2, 13]: 0.00E+00
Total_area MS1 (intact flg22) [2, 14]: 0.00E+00
Total_area MS1 (intact flg22) [2, 15]: 0.00E+00
